According to ChEMBL document CHEMBL3045332, “Synthesis of some new 2,6-disubstituted-3(2H)-pyridazinone derivatives and investigation of their analgesic, anti-inflammatory and antimicrobial activities” (Med Chem Res, 2013):
In brackets after ≈: the same amount, converted by molar mass.

Columns and labels:
Pseudomonas aeruginosa [1] = experiment: Antibacterial activity against Pseudomonas aeruginosa cloinical isolate after 24 hr by two-fold serial dilution method; format: functional
Escherichia coli [2] = experiment: Antibacterial activity against Escherichia coli clinical isolate expressing extended spectrum beta-lactamase after 24 hr by two-fold serial dilution method; format: functional
Staphylococcus aureus [3] = experiment: Antibacterial activity against methicillin-resistant Staphylococcus aureus clinical isolate after 24 hr by two-fold serial dilution method; format: functional
Mus musculus [4] = experiment: Analgesic activity in Swiss albino Mus musculus (mouse) assessed as inhibition of p-benzoquinone-induced writhing at 100 mg/kg, po administered 60 min prior to p-benzoquinone-challenge measured up to 15 min relative to control; format: functional
Mus musculus [5] = experiment: Anti-inflammatory activity in Swiss albino Mus musculus (mouse) assessed as inhibition of carrageenan-induced paw edema at 100 mg/kg, po administered 60 min prior to crrageenan-challenge measured at 270 min relative to control; format: functional
Pichia kudriavzevii = experiment: Antifungal activity against Pichia kudriavzevii ATCC 6258 after 48 hr by two-fold serial dilution method; format: functional; details: ATCC 6258, 48 h
Escherichia coli [6] = experiment: Antibacterial activity against Escherichia coli ATCC 25922 after 24 hr by two-fold serial dilution method; format: functional; details: ATCC 25922, 24 h
Enterococcus faecalis [7] = experiment: Antibacterial activity against Enterococcus faecalis ATCC 29212 after 24 hr by two-fold serial dilution method; format: functional; details: ATCC 29212, 24 h
Mus musculus [8] = experiment: Anti-inflammatory activity in Swiss albino Mus musculus (mouse) assessed as inhibition of carrageenan-induced paw edema at 100 mg/kg, po administered 60 min prior to crrageenan-challenge measured at 360 min relative to control; format: functional
Candida albicans = experiment: Antifungal activity against Candida albicans ATCC 10231 after 48 hr by two-fold serial dilution method; format: functional; details: ATCC 10231, 48 h
Mus musculus [9] = experiment: Ulcerogenic activity in p-benzoquinone-challenged Swiss albino Mus musculus (mouse) at 100 mg/kg, po administered 60 min prior to p-benzoquinone-challenge by microscopic analysis; format: toxicity, organism-based; parameters: dose 100 mg/kg, route oral; details: in vivo, 1 h
Pseudomonas aeruginosa [10] = experiment: Antibacterial activity against Pseudomonas aeruginosa ATCC 27853 after 24 hr by two-fold serial dilution method; format: functional; details: ATCC 27853, 24 h
Staphylococcus aureus [11] = experiment: Antibacterial activity against Staphylococcus aureus ATCC 29213 after 24 hr by two-fold serial dilution method; format: functional; details: ATCC 29213, 24 h
Enterococcus faecalis [12] = experiment: Antibacterial activity against Enterococcus faecalis clinical isolate after 24 hr by two-fold serial dilution method; format: functional
Mus musculus [13] = experiment: Anti-inflammatory activity in Swiss albino Mus musculus (mouse) assessed as inhibition of carrageenan-induced paw edema at 100 mg/kg, po administered 60 min prior to crrageenan-challenge measured at 180 min relative to control; format: functional
Mus musculus [14] = experiment: Anti-inflammatory activity in Swiss albino Mus musculus (mouse) assessed as inhibition of carrageenan-induced paw edema at 100 mg/kg, po administered 60 min prior to crrageenan-challenge measured at 90 min relative to control; format: functional

| Structure (SMILES) | MIC (Pseudomonas aeruginosa [1]) [µg/mL] | MIC (Escherichia coli [2]) [µg/mL] | MIC (Staphylococcus aureus [3]) [µg/mL] | inhibition in vivo at 100 mg/kg (Mus musculus [4]) [%] | inhibition in vivo at 100 mg/kg (Mus musculus [5]) [%] | MIC (Pichia kudriavzevii) [µg/mL] | MIC (Escherichia coli [6]) [µg/mL] | MIC (Enterococcus faecalis [7]) [µg/mL] | inhibition in vivo at 100 mg/kg (Mus musculus [8]) [%] | MIC (Candida albicans) [µg/mL] | Activity (Mus musculus [9]) | MIC (Pseudomonas aeruginosa [10]) [µg/mL] | MIC (Staphylococcus aureus [11]) [µg/mL] | MIC (Enterococcus faecalis [12]) [µg/mL] | inhibition in vivo at 100 mg/kg (Mus musculus [13]) [%] | inhibition in vivo at 100 mg/kg (Mus musculus [14]) [%] |
| --- | --- | --- | --- | --- | --- | --- | --- | --- | --- | --- | --- | --- | --- | --- | --- | --- |
| O=c1ccc(-c2ccccc2)nn1CCN1CCN(c2ccc(F)cc2)CC1 | 64 (≈ 169 µM) | 64 (≈ 169 µM) | 128 (≈ 338 µM) | 16.8 | 29.9 | 32 (≈ 84.6 µM) | 64 (≈ 169 µM) | 64 (≈ 169 µM) | 19.5 | 32 (≈ 84.6 µM) | Non-toxic | 64 (≈ 169 µM) | 64 (≈ 169 µM) | 64 (≈ 169 µM) | 26.3 | 10.6 |
| COc1ccc(-c2ccc(=O)n(CCN3CCN(c4ccc(OC)cc4)CC3)n2)cc1 | 64 (≈ 152 µM) | 64 (≈ 152 µM) | 128 (≈ 304 µM) | 5.6 | 13.6 | 32 (≈ 76.1 µM) | 64 (≈ 152 µM) | 64 (≈ 152 µM) | 7.9 | 32 (≈ 76.1 µM) | Non-toxic | 64 (≈ 152 µM) | 64 (≈ 152 µM) | 64 (≈ 152 µM) | – | – |
| COc1ccc(N2CCN(CCn3nc(-c4ccccc4)ccc3=O)CC2)cc1 | 64 (≈ 164 µM) | 64 (≈ 164 µM) | 128 (≈ 328 µM) | 8.6 | – | 32 (≈ 81.9 µM) | 64 (≈ 164 µM) | 64 (≈ 164 µM) | – | 32 (≈ 81.9 µM) | Non-toxic | 64 (≈ 164 µM) | 64 (≈ 164 µM) | 64 (≈ 164 µM) | – | – |
| COc1ccc(N2CCN(CCn3nc(-c4ccc(Cl)cc4)ccc3=O)CC2)cc1 | 64 (≈ 151 µM) | 64 (≈ 151 µM) | 128 (≈ 301 µM) | 30.2 | 18.5 | 32 (≈ 75.3 µM) | 64 (≈ 151 µM) | 64 (≈ 151 µM) | 15.5 | 32 (≈ 75.3 µM) | Non-toxic | 64 (≈ 151 µM) | 64 (≈ 151 µM) | 64 (≈ 151 µM) | 12.3 | 4.7 |
| COc1ccc(-c2ccc(=O)n(CCN3CCN(c4ccccc4)CC3)n2)cc1 | 64 (≈ 164 µM) | 64 (≈ 164 µM) | 128 (≈ 328 µM) | 18.4 | – | 32 (≈ 81.9 µM) | 64 (≈ 164 µM) | 64 (≈ 164 µM) | – | 32 (≈ 81.9 µM) | Non-toxic | 64 (≈ 164 µM) | 64 (≈ 164 µM) | 64 (≈ 164 µM) | 12.6 | 11.9 |
| O=c1ccc(-c2ccc(Cl)cc2)nn1CCN1CCN(c2ccc(F)cc2)CC1 | 64 (≈ 155 µM) | 64 (≈ 155 µM) | 128 (≈ 310 µM) | 57.5 | 35.3 | 32 (≈ 77.5 µM) | 64 (≈ 155 µM) | 64 (≈ 155 µM) | 28.8 | 32 (≈ 77.5 µM) | Non-toxic | 64 (≈ 155 µM) | 64 (≈ 155 µM) | 64 (≈ 155 µM) | 28.3 | 29.5 |
| O=c1ccc(-c2ccccc2)nn1CCN1CCN(c2ccc(Cl)cc2)CC1 | 64 (≈ 162 µM) | 64 (≈ 162 µM) | 128 (≈ 324 µM) | 23.3 | 14.8 | 32 (≈ 81 µM) | 64 (≈ 162 µM) | 64 (≈ 162 µM) | 12.1 | 32 (≈ 81 µM) | Non-toxic | 64 (≈ 162 µM) | 64 (≈ 162 µM) | 64 (≈ 162 µM) | 14.9 | 16.2 |
| COc1ccc(-c2ccc(=O)n(CCN3CCN(c4ccc(F)cc4)CC3)n2)cc1 | 64 (≈ 157 µM) | 64 (≈ 157 µM) | 128 (≈ 313 µM) | 47.6 | 22.9 | 32 (≈ 78.3 µM) | 64 (≈ 157 µM) | 64 (≈ 157 µM) | 18.3 | 32 (≈ 78.3 µM) | Toxic | 64 (≈ 157 µM) | 64 (≈ 157 µM) | 64 (≈ 157 µM) | 15.5 | 16.2 |
| CC1COc2c(N3CCN(C)CC3)c(F)cc3c(=O)c(C(=O)O)cn1c23 (stereo unspecified) [OFLOXACIN] | 32 (≈ 88.6 µM) | 16 (≈ 44.3 µM) | 2 (≈ 5.53 µM) | – | – | – | – | 1 (≈ 2.77 µM) | – | – | – | – | 0.5 (≈ 1.38 µM) | 2 (≈ 5.53 µM) | – | – |
